From patent EP3281644A1, “STABLE FLUORESCENT NANOVESICLES, METHOD FOR OBTAINING THEM AND USES THEREOF” (Consejo Superior De Investigaciones Científicas, priority 2016, dated 2018)

Key:
[1] = reference standard; in methanol; cited from earlier work
[2] = Photochemical decomposition quantum yield under continuous laser irradiation; type: physicochemical; settings: free dye in EtOH; diode laser 660 nm
Procedure: Photostabilities of DiD in EtOH and of DiD-nanovesicles were analyzed by monitoring the evolution over time of absorbance of the samples under continuous laser irradiation. The data are shown in Table below and are also represented in Figure 8. Additional column in Table 1 for rows of DiD
The quantum yields of photoreaction were calculated following the method proposed by Belfield et al. "Photophysical and photochemical properties of 5,7-di-methoxycoumarin under one- and two-photon excitation". J. Phys. Org. Chem. 16, 69-78 (2003).
Sample photostability under continuous-wave excitation was determined by measuring the photochemical decomposition quantum yield. […]
Quantum yields of photochemical decomposition were measured in ethanol (for DID) and water (FI, NDB and all nanovesicle samples) using absorption and fluorescence methods, where the number of bleached molecules is determined by a kinetic decrease in absorbance or fluorescence intensity under the assumption that fluorescence and absorbance of the photoproducts are negligible in the spectral region of dye fluorescence and main absorption band. Fluorescence method was used to estimate the photostability of dilute samples (with maximum absorbance < 0.1), while photochemical decomposition quantum yields of concentrated solutions (with maximum absorbance ≈ 1) were determined by absorption method. […]

Compound | QY, Φ [1] [%] | Photodecomposition QY*10^-5 [2]
cresyl violet | 56 | –
CCCCCCCCCCCCCCCCCCN1C(=CC=CC=CC2=[N+](CCCCCCCCCCCCCCCCCC)c3ccccc3C2(C)C)C(C)(C)c2ccccc21.[O-][Cl+3]([O-])([O-])[O-] [DiD EtOH, 1,1'-dioctadecyl-3,3,3',3'-tetramethyl-indodicarbocyanine perchlorate] | – | <0,008 *10^-5
